Assay results reported in patent publication US5294617A, “Angiotensin II receptor blocking 2,3,6 substituted quinazolinones” (American Cyanamid Company, priority 1993, dated 1994).
“And” between values parts separate entries of the source, which are not always exact repeats. Equal values may be shown once.

Tested on: ANGIOTENSIN II (AII) VASOPRESSOR RESPONSE
Assay: AII Challenge: angiotensin II vasopressor response in conscious spontaneously hypertensive rats
Type: in vivo, Conscious Male Okamoto-Aoki SHR (rat)
Conditions: for % Inhibition / Average Change: SHR n=2; for Response After AII / Response Change: individual rat, SHR
From the text: By administering a compound of this invention to a rat, and then challenging with angiotensin II, a blockage of the vasopressor response is realized.
Conscious Male Okamoto-Aoki SHR, 16-20 weeks old, weighing approximately 330 g are purchased from Charles River Labs (Wilmington, Mass.). Conscious rats are restrained in a supine position with elastic tape. The area at the base of the tail is locally anesthetized by subcutaneous infiltration with 2% procaine. The ventral caudal artery and vein are isolated, and a cannula made of polyethylene (PE) 10-20 tubing (fused together by heat) is passed into the lower abdominal aorta and vena cava, respectively. The cannula is secured, heparinized (1,000 I.U./ml), sealed and the wound is closed. The animals are placed in plastic restraining cages in an upright position. The cannula is attached to a Statham P23Db pressure transducer, and pulsatile blood pressure is recorded to 10-15 minutes with a Gould Brush recorder. (Chan et al., (Drug Development Res., 18:75-94, 1989).
Angiotensin II (human sequence, Sigma Chem. Co., St. Louis, Mo.) of 0.05 and 0.1 ug/kg i.v. is injected into all rats (predosing response). Then a test compound, vehicle or a known angiotensin II antagonist is administered i.v., i.p. or orally to each set of rats. The two doses of angiotensin II are given to each rat again at 30, 60, 90, 120, 180, 240 and 300 minutes post dosing the compound or vehicle. The vasopressor response of angiotensin II is measured for the increase in systolic blood pressure in mmHg. The percentage of antagonism or blockade of the vasopressor response of angiotensin II by a compound is calculated using the vasopressor response (increase in systolic blood pressure) of angiotensin II of each rat predosing the compound as 100%. A compound is considered active if at 30 mg/kg i.v. it antagonized at least 50% of the response.

[1] = 2 mg/kg i.v., AII 0.05 mcg/kg IV, 30 min post dose
[2] = 2 mg/kg i.v., AII 0.05 mcg/kg IV, 60 min post dose
[3] = 2 mg/kg i.v., AII 0.05 mcg/kg IV, 90 min post dose
[4] = 2 mg/kg i.v., AII 0.05 mcg/kg IV, 120 min post dose
[5] = 2 mg/kg i.v., AII 0.05 mcg/kg IV, 180 min post dose
[6] = 2 mg/kg i.v., AII 0.1 mcg/kg IV, 30 min post dose
[7] = 2 mg/kg i.v., AII 0.1 mcg/kg IV, 60 min post dose
[8] = 2 mg/kg i.v., AII 0.1 mcg/kg IV, 90 min post dose
[9] = 2 mg/kg i.v., AII 0.1 mcg/kg IV, 120 min post dose
[10] = 2 mg/kg i.v., AII 0.1 mcg/kg IV, 180 min post dose
[11] = 10 mg/kg i.v., AII 0.05 mcg/kg IV, 30 min post dose
[12] = 10 mg/kg i.v., AII 0.05 mcg/kg IV, 60 min post dose
[13] = 10 mg/kg i.v., AII 0.05 mcg/kg IV, 90 min post dose
[14] = 10 mg/kg i.v., AII 0.05 mcg/kg IV, 120 min post dose
[15] = 10 mg/kg i.v., AII 0.05 mcg/kg IV, 180 min post dose
[16] = 10 mg/kg i.v., AII 0.05 mcg/kg IV, 240 min post dose
[17] = 10 mg/kg i.v., AII 0.05 mcg/kg IV, 300 min post dose
[18] = 10 mg/kg i.v., AII 0.1 mcg/kg IV, 30 min post dose
[19] = 10 mg/kg i.v., AII 0.1 mcg/kg IV, 60 min post dose
[20] = 10 mg/kg i.v., AII 0.1 mcg/kg IV, 90 min post dose
[21] = 10 mg/kg i.v., AII 0.1 mcg/kg IV, 120 min post dose
[22] = 10 mg/kg i.v., AII 0.1 mcg/kg IV, 180 min post dose
[23] = 10 mg/kg i.v., AII 0.1 mcg/kg IV, 240 min post dose
[24] = 10 mg/kg i.v., AII 0.1 mcg/kg IV, 300 min post dose
[25] = 2 mg/kg i.v., AII 0.05 mcg/kg IV, 30 min post dose, 2 mg/kg
[26] = 2 mg/kg i.v., AII 0.05 mcg/kg IV, 60 min post dose, 2 mg/kg
[27] = 2 mg/kg i.v., AII 0.05 mcg/kg IV, 90 min post dose, 2 mg/kg
[28] = 2 mg/kg i.v., AII 0.05 mcg/kg IV, 180 min post dose, 2 mg/kg
[29] = 2 mg/kg i.v., AII 0.1 mcg/kg IV, 30 min post dose, 2 mg/kg
[30] = 2 mg/kg i.v., AII 0.1 mcg/kg IV, 60 min post dose, 2 mg/kg

CCCCc1nc2ccc([C@@H]3C[C@H](CO)ON3C)cc2c(=O)n1Cc1ccc(-c2ccccc2-c2nn[nH]n2)cc1 (relative stereo) [Example 15, CIS-2-butyl-6-5-(hydroxymethyl)-2-methyl-3-isoxazolidinyl]-3-[[2'-(1H-tetrazol-5[1,1'-biphenyl]-4-yl]methyl]-4(3H)-quinazolinone]
% Inhibition [1]: 43%
Average Change [1]: 26 mmHg
% Inhibition [2]: 67%
Average Change [2]: 15 mmHg
% Inhibition [3]: 67%
Average Change [3]: 15 mmHg
% Inhibition [4]: 67%
Average Change [4]: 15 mmHg
% Inhibition [5]: 43%
Average Change [5]: 26 mmHg
% Inhibition [6]: 38%
Average Change [6]: 30 mmHg
% Inhibition [7]: 45%
Average Change [7]: 26.5 mmHg
% Inhibition [8]: 48%
Average Change [8]: 25 mmHg
% Inhibition [9]: 62%
Average Change [9]: 18.5 mmHg
% Inhibition [10]: 54%
Average Change [10]: 22.5 mmHg
% Inhibition [11]: 78%
Average Change [11]: 10 mmHg
% Inhibition [12]: 99%
Average Change [12]: 0.5 mmHg
% Inhibition [13]: 89%
Average Change [13]: 5 mmHg
% Inhibition [14]: 72%
Average Change [14]: 12.5 mmHg
% Inhibition [15]: 56%
Average Change [15]: 20 mmHg
% Inhibition [16]: 67%
Average Change [16]: 15 mmHg
% Inhibition [17]: 70%
Average Change [17]: 13.5 mmHg
% Inhibition [18]: 100%
Average Change [18]: 0 mmHg
% Inhibition [19]: 80%
Average Change [19]: 9 mmHg
% Inhibition [20]: 72%
Average Change [20]: 12.5 mmHg
% Inhibition [21]: 72%
Average Change [21]: 12.5 mmHg
% Inhibition [22]: 52%
Average Change [22]: 21.5 mmHg
% Inhibition [23]: 52%
Average Change [23]: 21.5 mmHg
% Inhibition [24]: 28%
Average Change [24]: 32,5 mmHg
Response After AII [25]: 237 mmHg and 255 mmHg
Response Change [25]: 22 mmHg and 30 mmHg
Response After AII [2]: 245 mmHg
Response After AII [26]: 225 mmHg
Response Change [26]: 25 mmHg and 5 mmHg
Response After AII [27]: 230 mmHg and 235 mmHg
Response Change [27]: 20 mmHg and 10 mmHg
Response Change [4]: 15 mmHg
Response After AII (2 mg/kg i.v., AII 0.05 mcg/kg IV, 120 min post dose, 2 mg/kg): 220 mmHg and 230 mmHg
Response After AII [28]: 220 mmHg and 250 mmHg
Response Change [28]: 17 mmHg and 35 mmHg
Response After AII [29]: 245 mmHg and 250 mmHg
Response Change [29]: 25 mmHg and 35 mmHg
Response After AII [30]: 255 mmHg and 235 mmHg
Response Change [30]: 35 mmHg and 18 mmHg
